In paper PMC6199744, “Development of Chemical Proteomics for the Folateome and Analysis of the Kinetoplastid Folateome” (ACS Infectious Diseases, 2018):

Tested on: L. major lysate proteins
Test: Multitargeted bead mixture chemoproteomics, single concentration competition, proteome-wide
Type: binding
Conditions: for fold change: vehicle control = 1

In the case of `NCCCNc1ccc(C(=O)NC(CCC(=O)O)C(=O)O)cc1` (stereo not drawn) [compound 7], the fold change (protein LMJF.15.0040 HYPOTHETICAL PROTEIN, CONSERVED (Possible lysine decarboxylase, putative)) is reported as 0.73, the “fold change vs vehicle control” value (protein LMJF.15.0690 HY[…], CONSERVED) is reported as 1.02 and the fold change (protein LMJF.15.1010 GLUTAMATE DEHYDROGENASE) is reported as 1.04. For the same molecule, the fold change (protein LMJF.15.1190 HY[…], CONSERVED (cyclic nucleotide-binding domain containing protein, putative)) was 1.08, the “fold change vs vehicle control” value (protein LMJF.16.0520 HY[…], CONSERVED) was 1.02 and the “fold change vs vehicle control” value (protein LMJF.16.0540 ASPARTATE CARBAMOYLTRANSFERASE, PUTATIVE) was 0.99. For the same molecule, the “fold change relative to vehicle control” value (protein LMJF.16.0760, TRANSALDOLASE, PUTATIVE) was 0.99, the “fold change vs vehicle control” value (protein LMJF.16.0940 DYNEIN LIGHT CHAIN, PUTATIVE) was 1.11 and the “fold change relative to vehicle control” value (protein LMJF.16.1180, COATOMER DELTA SUBUNIT-LIKE PROTEIN) was 1.2. The “fold change relative to vehicle control” value (protein LMJF.16.1320, […], PUTATIVE) was 1.34, the “fold change relative to vehicle control” value (protein LMJF.16.1420, HY[…], CONSERVED) was 1.05 and the “fold change relative to vehicle control” value (protein LMJF.17.0081, […] 1-ALPHA) was 1.09. The “fold change relative to vehicle control” value (protein LMJF.18.0270, GLYCOGEN SYNTHASE KINASE, PUTATIVE) was 0.98, the fold change (protein LMJF.18.0580 P[…]-COA HYDRATASE, PUTATIVE) was 1.04 and the “fold change relative to vehicle control” value (protein LMJF.18.0680, CITRATE SYNTHASE, PUTATIVE) was 1.06. For the same molecule, the “fold change vs vehicle control” value (protein LMJF.18.1010 DYNEIN LIGHT CHAIN 2B, CYTOPLASMIC, PUTATIVE) was 1.15, the “fold change vs vehicle control” value (protein LMJF.18.1210 PROLYL-TRNA SYNTHETASE, PUTATIVE,BI[…]-TRNA SYNTHETASE, PUTATIVE) was 1.03 and the “fold change vs vehicle control” value (protein LMJF.18.1370 HEAT SHOCK PROTEIN, PUTATIVE) was 1.14. For the same molecule, the fold change (protein LMJF.19.0200 ADP,ATP CARRIER PROTEIN 1, MIT[…], PUTATIVE) was 1.08, the “fold change vs vehicle control” value (protein LMJF.19.1120 […]-ATP-ASE SUBUNIT, PUTATIVE) was 1.07 and the “fold change vs vehicle control” value (protein LMJF.19.1160 HYPOTHETICAL PROTEIN, CONSERVED) was 0.99. The “fold change vs vehicle control” value (protein LMJF.19.1560 INOSINE-5'-MONOPHOSPHATE DEHYDROGENASE) was 0.97, the “fold change relative to vehicle control” value (protein LMJF.19.1620, POTASSIUM VOLTAGE-GATED CHANNEL, PUTATIVE) was 1.12 and the “fold change vs vehicle control” value (protein LMJF.20.1280 SMALL MYRISTOYLATED PROTEIN 4, PUTATIVE) was 0.92. The fold change (protein LMJF.21.0810 METHIONYL-TRNA SYNTHETASE, PUTATIVE) was 0.87, the fold change (protein LMJF.21.1450 ARGININE N-METHYLTRANSFERASE, TYPE II, PUTATIVE) was 1.06 and the “fold change vs vehicle control” value (protein LMJF.21.1830 […] 5 SUBUNIT, PUTATIVE,20S […] ALPHA 5, (PUTATIVE)) was 1.01. The fold change (protein LMJF.22.0230 AMINO ACID PERMEASE, PUTATIVE) was 1.14, the “fold change vs vehicle control” value (protein LMJF.22.0570 […] SUBUNIT 1, PUTATIVE) was 1.04 and the “fold change vs vehicle control” value (protein LMJF.22.0730 HYPOTHETICAL PROTEIN, CONSERVED) was 0.96. For the same molecule, the fold change (protein LMJF.22.0770 NADH-CYTOCHROME B5 REDUCTASE, PUTATIVE) was 0.85, the “fold change relative to vehicle control” value (protein LMJF.23.0020, HYPOTHETICAL PROTEIN, CONSERVED) was 1.99 and the “fold change relative to vehicle control” value (protein LMJF.23.0040, PEROXIDOXIN) was 0.99. The “fold change relative to vehicle control” value (protein LMJF.23.0080, HYPOTHETICAL PROTEIN, CONSERVED) was 0.99, the fold change (protein LMJF.23.0210 ATP-BINDING CASSETTE PROTEIN SUBFAMILY C, MEMBER 1, PUTATIVE) was 1.03 and the fold change (protein LMJF.23.0370 CYTOCHROME C OXIDASE SUBUNIT 10, PUTATIVE) was 0.97. The “fold change relative to vehicle control” value (protein LMJF.23.0540, ACETYL-COA SYNTHETASE, PUTATIVE) was 1.01, the “fold change vs vehicle control” value (protein LMJF.23.0560 KINESIN, PUTATIVE) was 0.91 and the “fold change vs vehicle control” value (protein LMJF.23.1410 HY[…], CONSERVED) was 1.12. The “fold change relative to vehicle control” value (protein LMJF.24.0070, HY[…], CONSERVED) was 1.03, the fold change (protein LMJF.24.0140 ANKYRIN/TPR REPEAT PROTEIN) was 0.93 and the fold change (protein LMJF.24.0400 HYPOTHETICAL PROTEIN, CONSERVED (TPR repeat, putative)) was 0.96. For the same molecule, the “fold change relative to vehicle control” value (protein LMJF.24.1510, IGE-DEPENDENT HISTAMINE-RELEASING FACTOR, PUTATIVE) was 0.85, the “fold change relative to vehicle control” value (protein LMJF.24.1630, SUCCINATE DEHYDROGENASE FLAVOPROTEIN, PUTATIVE) was 1 and the “fold change relative to vehicle control” value (protein LMJF.24.2060, TRANSKETOLASE) was 1.02. The “fold change relative to vehicle control” value (protein LMJF.25.0010, BETA […] TRANSFERASE) was 1.21, the “fold change relative to vehicle control” value (protein LMJF.25.0910, CYCLOPHILIN A) was 0.9 and the “fold change vs vehicle control” value (protein LMJF.25.1130 […] OXIDASE VII, PUTATIVE) was 1.09. For the same molecule, the “fold change relative to vehicle control” value (protein LMJF.25.1180, ATPASE BETA SUBUNIT, PUTATIVE) was 1.06, the “fold change vs vehicle control” value (protein LMJF.25.1610 HY[…], CONSERVED) was 1.08 and the “fold change vs vehicle control” value (protein LMJF.25.1620 HYPOTHETICAL PROTEIN, CONSERVED) was 0.99. The fold change (protein LMJF.25.2340 SERINE/THREONINE-PROTEIN KINASE, PUTATIVE,PROTEIN KINASE, PUTATIVE) was 0.83, the “fold change relative to vehicle control” value (protein LMJF.26.0630, HY[…], CONSERVED) was 1.11 and the “fold change vs vehicle control” value (protein LMJF.26.1240 HEAT SHOCK PROTEIN 70-RELATED PROTEIN) was 1.06. For the same molecule, the fold change (protein LMJF.26.1710 […] OXIDASE SUBUNIT V, PUTATIVE) was 1.03, the “fold change vs vehicle control” value (protein LMJF.26.2480 CDP-DIACYLGLYCEROL--INOSITOL 3-[…], PUTATIVE) was 1.06 and the “fold change vs vehicle control” value (protein LMJF.26.2560 HYPOTHETICAL PROTEIN, CONSERVED) was 0.94. The “fold change vs vehicle control” value (protein LMJF.27.0190 PROTEASOME ALPHA 7 SUBUNIT, PUTATIVE) was 0.97, the fold change (protein LMJF.27.0650 HY[…], CONSERVED) was 1.07 and the fold change (protein LMJF.27.0700 HYPOTHETICAL PROTEIN, CONSERVED) was 1.67. The “fold change vs vehicle control” value (protein LMJF.27.0760 GTP-binding protein homologue) was 0.78, the “fold change vs vehicle control” value (protein LMJF.27.1060 CYSTEINE DESULFURASE, PUTATIVE) was 0.93 and the “fold change vs vehicle control” value (protein LMJF.27.1110 MIT[…] BINDING PROTEIN 1,GBP21, MRP1) was 1.07. The fold change (protein LMJF.27.1250 HYPOTHETICAL PROTEIN, CONSERVED (Serine-threonine kinase receptor-associated protein, putative)) was 0.97, the “fold change relative to vehicle control” value (protein LMJF.27.1390, 60S ACIDIC RIBOSOMAL SUBUNIT PROTEIN, PUTATIVE) was 1.05 and the fold change (protein LMJF.27.1460 PROTEASOME REGULATORY NON-ATP-ASE SUBUNIT 3, PUTATIVE) was 0.87.
